One data set concerns PANC-1 cells. Briefly: MTT cell growth and viability assay, PANC-1. It is filed as cell-based, human. The note with it: 50-175 μM Asc-S, 24 hours, MEM+10% FBS or serum free MEM+15 nM IGF-1. The protocol:
PANC-1 Cell Culture: The human pancreatic ductal adenocarcinoma cell line PANC-1 was obtained from the American Type Culture Collection (Rockville, Md.). PANC-1 cells were cultured for 24 hours in Minimum Essential Medium (MEM) (Whitaker M A Bioproducts, Walkersville, Md.) supplemented with 10% fetal bovine serum (FBS) (Hyclone Laboratories, Logan, Utah) or serum free MEM+15 nM human recombinant IGF-1, penicillin (50 U/ml), streptomycin (50 μg/ml) and 1.0 mM L-glutamine.
Cell Growth and Vitality: The effect of Asc-S on PANC-1 and PC-1 cell growth and viability was evaluated by 3-(4,5-dimethylthiazol-2yl)-2,5-diphenyl-tetrazoliumbromide (MTT) (Sigma Chemical Co., St. Louis, Md.) assay and the details of the procedure are as described earlier (Naidu et al., 1993a) PANC-1 cells were seeded at 2.5×10^4 viable cells well in 0.1 ml MEM supplemented with 10% FBS or serum free MEM with 15 nM human recombinant IGF-1 in 96 multiwell tissue culture plates. The following day when the cells were nearly confluent, the medium was replaced with fresh medium and 50, 75, 100, 125, 150, 175 and 200 μM Asc-S were added and incubated in a CO2 incubator at 37° C. for 24 hours with respective untreated controls.

A further data set deals with T98G cells. Kind of data set: MTT cell proliferation assay, T98G. It is filed as cell-based, human. The note with it: for inhibition at 50 µM / inhibition at 100 µM / inhibition at 175 µM: Homo sapiens, T98G. The procedure:
T98G cell proliferation: Murine (G26) and human glioma (U-373) cell proliferation was inhibited following exposure to ascorbyl esters (Naidu et al., 1993a and 1993b). The cell proliferation was assessed by [^3H] thymidine incorporation and MTT assay (Naidu et al., 1993a, 1993b and 1996). […] The T98G cells were cultured for 24 hours in MEM+10% FBS, and, when confluent, were treated with 0 (untreated control), 50, 75, 100, 125, 150 and 175 μM Asc-S. Appropriate untreated controls were included. The cell proliferation was measured by MTT assay.
Background: Tetrazolium assays rely on reduction of a dye to a coloured formazan, in cell work by metabolically active cells.

For data set [1] the following is noted: mice; cited from earlier work.
The subject of a further data set is Ras (p21). Kind of data set: Ras (p21) expression by Western blot, PANC-1. The following applies: 150 μM, 24 hours. It is filed as cell-based, human. The procedure: PANC-1 cells were cultured for 24 hours in MEM+10% FBS and treated with 150 μM Asc-S for 24 hours, Asc-S treated and untreated (control). PANC-1 cells were analyzed by Western immunoblotting as follows: Cell lysates of treated and non-treated PANC-1 cells were obtained. The lysates were sonicated, centrifuged and protein concentration was determined with Pierce BCA protein kit (Pierce Laboratories). A 20 μg of protein was loaded and resolved at 4% to 15% polyacrylamide gradient gel by sodium dodecyl sulfate-polyacrylamide gel electrophoresis (SDS-PAGE) and electroblotted onto a nitrocellulose membrane […]. The membrane was immunoblotted with mouse anti-human IGF1-R antibodies to cross-react the 85 kDa β-subunit of the IGF1-R (Pharmingen, San Diego, Calif.) followed by anti-mouse horseradish peroxidase conjugated secondary antibody (ECL, Amersham Corporation, Arlington Heights, Ill.). Antigen bound to nitrocellulose membrane was detected with the ECL system (Amersham Corporation, Arlington Heights, Ill.). P6 cells (3T3 fibroblast cells, transfected with a CVN plasmid constituitively expressing human IGF1-R) were used as the positive control.
Effects of Asc-S on Ras expression in PANC-1 cells: The activation of the IGF1-R induces a cascade of phosphorylations including that of GDP to GTP with activation of the Ras pathway. […]
For orientation: A western blot detects proteins with antibodies after separation by electrophoresis.

Data set [2] concerns IGF1-R. Kind of data set: IGF1-R expression by Western blotting, PC-1. It is filed as cell-based, hamster. The following applies: 150 μM, 24 hours, vs untreated control. The procedure: This inhibition was dose and time dependent. In fact the exposure of PANC-1 cells to different concentrations of Asc-S (e.g. 50, 75, 100, 125, 150, and 200 μM) for 24 hours in the same conditions, inhibited IGF1-R expression in a dose dependent fashion (FIG. 2A).
The effect of Asc-S on the proliferation of PC-1 and PANC-1 pancreatic tumor cells was studied using MTT assay. The expression of IGF1-R was analyzed by Western blot analysis, using polyclonal IGF1-R antibody (Upstate Biotech). Apoptosis was assessed by in situ hybridization using TUNEL reaction. […] This was associated with significant decrease in IGF1-R expression and increased apoptotic rate as compared to the control. Statistical analysis on the MTT assay was done using Student's T-test.

Data set [3] concerns IGF1-R. Kind of data set: IGF1-R expression by Western immunoblotting, T98G. It is filed as cell-based, human. The following applies: 100 μM, 24 hours, MEM+10% FBS. The procedure: (§1) The T98G and U-373 cells were cultured for 24 hours in MEM+10% FBS and when confluent were treated with 100 μM and 75 μM, Asc-S for 24 hours, respectively. […] In addition, it was also observed that the inhibition of IGF1-R expression was dose and time dependent. The T98G cells culture in MEM+10% FBS and treated with different concentrations of Asc-S, e.g. 50, 75, 100, 125, 150 and 175 μM for 24 hours, inhibited IGF1-R in a dose dependent fashion (FIG. 8C). The T98G cells treated with 100 μM Asc-S for different time points, e.g. 1, 3, 6, 12 and 24 hours inhibited IGF1-R in a time dependent manner (FIG. 8D). IGF1-R expression was evaluated by Western immunoblotting technique with rabbit-antihuman IGF1-R antibodies (Upstate Biotechnology, Lake Placid, N.Y.) with HRP conjugated anti-rabbit secondary antibody.
(§2) The inhibition of IGF1-R expression was also dose and time dependent. […] The following are depicted in FIG. 8B: Lane 1: P6 positive control for IGF1-R […]; Lane 2: untreated T98G cells; Lane 3: Asc-S (125 μM) treated T98G cells. […]

The test system of data set [4] is IGF1-R. Kind of data set: IGF1-R expression by Western immunoblotting, U-373. The note with it: 75 μM, 24 hours, MEM+10% FBS. It is filed as cell-based, human. The protocol:
as §1, §2

As usually defined, the inhibition is how much of the control response was suppressed. Low readings indicate a weak effect, high ones a strong effect. By LD50 is commonly meant the dose at which mortality reaches 50%.

Regarding `CCCCCCCCCCCCCCCCCC(=O)OC[C@H](O)[C@H]1OC(=O)C(O)=C1O` [Asc-S, Ascorbyl stearate], the “PANC-1 cell proliferation (MTT assay)” value in the data set with PANC-1 cells is recorded as “inhibited cell proliferation in a dose dependent manner”. For the same compound, the “T98G cell proliferation (MTT assay)” value in the data set with T98G cells (50-175 μM Asc-S, 24 hours) is “inhibited cell proliferation in a dose dependent manner”. For the same compound, the inhibition at 50 µM was determined as 8.7% in the data set on T98G cells (cultured with FBS, 50 μM) and 15.3% in the data set with T98G cells (with IGF-1, 50 μM). Also, the inhibition at 100 µM in the data set with T98G cells (cultured with FBS, 100 μM) amounted to 38.5%; with T98G cells (with IGF-1, 100 μM), 54.2%. Moreover, the inhibition at 175 µM in the data set with T98G cells (cultured with FBS, 175 μM) was found to be 87.2%; in the data set on T98G cells (with IGF-1, 175 μM) it was 87.7%. Moreover, the LD50 in data set [1] was 25000 mg/kg. In addition, the “Ras (p21) expression, PANC-1” value in the data set with Ras (p21) was “significant inhibition”. Further, the “IGF1-R expression, PC-1 cells (Western blotting)” value in the data set with IGF1-R [2] is on record as “significantly lower number of receptors”. Also, in the data set with IGF1-R [3], the “IGF1-R expression, T98G cells” value is listed as “significantly down regulated”. In addition, the “IGF1-R expression, U-373 cells” value in the data set on IGF1-R [4] is on record as “significantly down regulated”.

Values taken from US6638974B1, “Ascorbyl esters for the treatment of cancer” (University of South Florida, priority 1999, dated 2003).
